Experiments:
[1] = Inhibition of N-terminal His6-tagged Plasmodium falciparum DHODH expressed in Escherichia coli BL21(DE3) cells using L-DHO as substrate by DCIP dye based assay
[2] = molecular target: Dihydroorotate dehydrogenase (quinone), mitochondrial (Homo sapiens, UniProt Q02127)
[3] = tested on: Plasmodium falciparum; assay: microbe, parasite or virus in culture; settings: 3D7, 72 h
[4] = molecular target: Albumin (Homo sapiens, UniProt P02768); assay: Binding affinity to albumin (unknown origin) by chromatographic method; format: ADME; settings: albumin, read-out: PB (converted)
Sequence of Albumin (P02768 whole entry): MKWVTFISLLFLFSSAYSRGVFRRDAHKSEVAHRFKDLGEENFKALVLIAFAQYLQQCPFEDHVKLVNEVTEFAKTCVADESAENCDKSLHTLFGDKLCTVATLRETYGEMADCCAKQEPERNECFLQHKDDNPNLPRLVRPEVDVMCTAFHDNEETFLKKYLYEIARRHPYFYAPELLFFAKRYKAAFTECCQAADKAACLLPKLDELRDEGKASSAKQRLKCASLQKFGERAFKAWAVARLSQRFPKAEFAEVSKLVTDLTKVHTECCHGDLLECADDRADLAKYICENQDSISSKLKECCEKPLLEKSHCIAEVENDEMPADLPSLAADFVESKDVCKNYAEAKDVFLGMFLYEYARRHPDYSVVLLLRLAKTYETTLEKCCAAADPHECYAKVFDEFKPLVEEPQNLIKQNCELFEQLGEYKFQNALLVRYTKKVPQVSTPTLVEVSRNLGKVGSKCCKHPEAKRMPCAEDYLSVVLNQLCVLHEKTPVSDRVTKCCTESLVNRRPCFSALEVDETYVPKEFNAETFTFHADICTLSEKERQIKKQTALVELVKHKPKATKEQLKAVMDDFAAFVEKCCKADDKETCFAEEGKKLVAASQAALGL

[5] = Intrinsic clearance in mouse liver microsomes assessed as per mg protein; format: ADME, Microsome; settings: microsomes
[6] = physchem; settings: octanol/water, pH 7.4
[7] = Intrinsic clearance in human liver microsomes assessed as per mg protein; format: ADME, Microsome

Sequence of Dihydroorotate dehydrogenase (quinone), mitochondrial (Q02127 whole entry): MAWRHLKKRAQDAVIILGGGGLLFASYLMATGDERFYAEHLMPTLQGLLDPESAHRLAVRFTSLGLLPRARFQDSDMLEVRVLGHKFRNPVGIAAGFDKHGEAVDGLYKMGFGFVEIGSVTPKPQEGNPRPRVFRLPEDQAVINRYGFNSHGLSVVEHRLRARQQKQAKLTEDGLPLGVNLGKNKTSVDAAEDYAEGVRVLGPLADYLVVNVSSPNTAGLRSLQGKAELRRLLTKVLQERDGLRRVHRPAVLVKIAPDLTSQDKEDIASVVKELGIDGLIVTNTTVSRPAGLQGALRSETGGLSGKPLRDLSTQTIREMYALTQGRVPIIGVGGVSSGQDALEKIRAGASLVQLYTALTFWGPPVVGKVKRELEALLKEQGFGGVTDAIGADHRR

Compound	IC50 [1] [nM]	IC50 [2] [nM]	EC50 [3] [nM]	fraction unbound [4]	microsomal CLint [5] [µL/min/mg]	logD [6]	microsomal CLint [7] [µL/min/mg]
Cc1[nH]c(C(=O)N2CCC2)c(C)c1Cc1ccc(C(F)(F)F)cn1	1800	> 100000	1000	–	–	–	–
Cc1c(Cc2ccc(C(F)(F)F)nc2)c[nH]c1C(=O)NCC(F)(F)F	210	> 100000	44 to 59	0.181	57	3.3	15
Cc1[nH]c(C(=O)NC2CC2)c(C)c1C(=O)c1ccc(C(F)(F)F)cn1	> 100000	–	10000 to 20000	0.496	24	2.4	8
Cc1c(Cc2ccc(C(F)(F)F)nc2)c[nH]c1C(=O)N1CCC1	170	> 100000	82	0.341	192	2.7	< 7
Cc1c(C(O)c2ccc(C(F)(F)F)nc2)c[nH]c1C(=O)NC1CC1 (racemic)	74	> 100000	44	0.105	40	3.2	20
CCOC(=O)c1[nH]cc(Cc2ccc(C(F)(F)F)cc2Cl)c1C	42	> 100000	29	–	–	–	–
CCNC(=O)c1[nH]c(C)c(Cc2ccc(C(F)(F)F)cc2)c1C	140	> 100000	51	–	–	–	–
CCOC(=O)c1[nH]cc(Cc2ccc(C(F)(F)F)cc2OC)c1C	1100	–	810	–	–	–	–
CCOC(=O)c1[nH]c(C)c(Cc2ccc(OCC)cc2)c1C	–	> 100000	230 to 250	–	470	4.5	188
Cc1c(Cc2ccc(C(F)(F)F)nc2)c[nH]c1C(=O)N1CCCC1	9800	–	4800	–	–	–	–
Cc1[nH]c(C(=O)O)c(C)c1Cc1ccc(C(F)(F)F)cc1	–	–	> 10000	–	–	–	–
Cc1c(Cc2cnc(C(F)(F)F)nc2)c[nH]c1C(=O)NC1CC1	–	> 100000	390	–	–	2.5	< 7
CCOC(=O)c1[nH]cc(Cc2ccc(C(F)(F)F)cc2)c1C	130	> 100000	60	–	–	–	–
Cc1c(Cc2ccc(C(F)(F)F)nc2)c[nH]c1C(=O)NC1CC(F)C1 (configuration not stated)	320	–	170	–	–	–	–
CCCCNC(=O)c1[nH]c(C)c(Cc2ccc(C(F)(F)F)cc2)c1C	9900	> 100000	710	–	–	–	–
Cc1[nH]c(C(=O)NC2CC2)cc1Cc1ccc(C(F)(F)F)nc1	10000	> 100000	3600	0.274	41	2.8	36

Compound	IC50 [1] [nM]	IC50 [2] [nM]	EC50 [3] [nM]	fraction unbound [4]	microsomal CLint [5] [µL/min/mg]	logD [6]	microsomal CLint [7] [µL/min/mg]
Cc1[nH]c(C(=O)NC2CC2)cc1Cc1cnc(C(F)(F)F)nc1	> 100000	–	> 10000	0.555	8	2.5	< 7
Cc1[nH]c(C(=O)NC(C)(C)C)cc1Cc1ccc(C(F)(F)F)nc1	5700	–	3500	–	–	–	–
O=C(NC1CC1)c1cc(Cc2ccc(C(F)(F)F)nc2)c[nH]1	2500	> 100000	500 to 1700	0.333	96	2.6	31
CCOC(=O)c1[nH]c(C)c(Cc2cc(OC)cc(OC)c2)c1C	2300	> 100000	10000	–	–	–	–
Cc1[nH]c(C(=O)NC2CC2)c(C)c1Cc1ccc(C(F)(F)F)nc1	–	> 100000	36	0.172	33	3	15
Cc1c(Cc2ccc(C(F)(F)F)nc2)c[nH]c1C(=O)C1CC1	18	> 100000	9.9	–	–	–	–
CCOC(=O)c1[nH]cc(Cc2ccc(C#N)nc2)c1C	630	–	200	–	–	–	–
Cc1[nH]c(C(=O)NC2CNC2)cc1Cc1ccc(C(F)(F)F)nc1	> 100000	–	> 20000	–	–	–	–
CCCNC(=O)c1[nH]c(C)c(Cc2ccc(C(F)(F)F)nc2)c1C	72	> 100000	47	0.155	64	3.2	172
Cc1[nH]c(C(=O)NC2CN(C)C2)cc1Cc1ccc(C(F)(F)F)nc1	> 100000	–	> 20000	–	–	–	–
Cc1[nH]c(C(=O)NC2CCN(C)CC2)cc1Cc1ccc(C(F)(F)F)nc1	> 100000	–	> 10000	–	–	–	–
COCc1c(Cc2ccc(C(F)(F)F)nc2)c[nH]c1C(=O)NC1CC1	450	> 100000	240	–	–	–	–
Cc1[nH]c(C(=O)NC2CCC2)c(C)c1Cc1ccc(C(F)(F)F)cn1	410	> 100000	470 to 680	–	–	–	–
Cc1[nH]c(C(=O)NC2CC2)c(C)c1Cc1ccc(C(F)(F)F)cn1	440	–	340	–	–	–	–
CCOC(=O)c1[nH]cc(Cc2c(F)cc(C(F)(F)F)cc2F)c1C	> 30000	–	> 10000	–	–	–	–

Source: ChEMBL document CHEMBL4602703, “Lead Optimization of a Pyrrole-Based Dihydroorotate Dehydrogenase Inhibitor Series for the Treatment of Malaria” (J Med Chem, 2020)
